In patent US12139492B2 (Endotarget Inc., priority 2021, dated 2024):
pIC50: −log10 of the molar value. Where two headings read alike, the source gives them in different places.

Assays:
BTK = BTK (Homo sapiens, UniProt Q06187); test: Degradation of BTK protein in Namalwa cells (Western blot; DC50, Dmax); conditions: for DC50: cell line not given
Mino cells = test: Antiproliferative effect, MTS cell viability assay, Mino cells; assay type: cell-based; conditions: Homo sapiens, MINO, Mino mantle cell lymphoma cells; read-out: IC50 (anti-proliferation) Mino cells
Procedure, shortened: (§1)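 Steps: seed B-cell lymphoma line; add compound at 0, 0.001, 0.01, 0.1, 1 or 10 μM; incubate 72 h; add MTS and read reduced tetrazolium (formazan) absorbance at 490 nm.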

JeKo-1 cells = test: Antiproliferative effect, MTS cell viability assay, JeKo-1 cells; assay type: cell-based; conditions: Homo sapiens; JeKo-1 mantle cell lymphoma cells; read-out: IC50 (anti-proliferation) JeKO-1 cells
Procedure, shortened: as §1

[1] = read-out: DC50 (BTK degradation), concentration giving 50% reduction of BTK expression level
[2] = read-out: Dmax (BTK degradation)

BTK, sequence (Q06187 whole entry): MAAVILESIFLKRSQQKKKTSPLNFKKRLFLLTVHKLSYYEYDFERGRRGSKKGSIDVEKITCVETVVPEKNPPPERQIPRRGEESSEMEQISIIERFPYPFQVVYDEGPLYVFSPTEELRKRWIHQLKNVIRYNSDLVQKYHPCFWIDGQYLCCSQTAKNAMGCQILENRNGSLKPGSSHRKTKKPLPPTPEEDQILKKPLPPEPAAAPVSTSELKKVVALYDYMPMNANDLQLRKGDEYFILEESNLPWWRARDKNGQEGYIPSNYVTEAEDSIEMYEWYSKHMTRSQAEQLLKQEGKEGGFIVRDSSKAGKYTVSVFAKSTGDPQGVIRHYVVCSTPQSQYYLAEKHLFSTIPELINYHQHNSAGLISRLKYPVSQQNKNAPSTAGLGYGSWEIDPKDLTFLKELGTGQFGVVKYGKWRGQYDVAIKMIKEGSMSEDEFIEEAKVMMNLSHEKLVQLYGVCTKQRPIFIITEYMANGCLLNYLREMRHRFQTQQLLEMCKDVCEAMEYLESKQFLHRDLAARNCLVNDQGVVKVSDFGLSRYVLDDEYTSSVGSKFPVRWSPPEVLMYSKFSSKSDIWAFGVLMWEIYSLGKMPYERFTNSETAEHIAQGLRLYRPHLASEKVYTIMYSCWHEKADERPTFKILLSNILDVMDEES

Structure (SMILES) | Dmax (BTK) [%] | DC50 (BTK; BTK degradation) [µM] | pIC50 (Mino cells) | pIC50 (JeKo-1 cells) | DC50 (BTK; [1]) [µM] | Dmax (BTK; [2]) [%] | degradation of BTK protein (BTK; Namalwa B lymphocyte cells, various concentrations, 24 hours, Western blot)
NC(=O)c1c(-c2ccc(Oc3ccccc3)cc2)nn2c1NCC[C@H]2C1CCN(C(=O)N2CCN(CC3CCN(c4ccc5c(c4)C(=O)N(C4CCC(=O)NC4=O)C5=O)CC3)CC2)CC1 (stereo partly drawn) [Compound 289, (7S)-7-(1-(4-((1-(2-(2,6-dioxopiperidin-3-yl)-1,3-dioxoisoindolin-5-yl)piperidin-4-yl)methyl)piperazine-1-carbonyl)piperidin-4-yl)-2-(4-phenoxyphenyl)-4,5,6,7-tetrahydropyrazolo[1,5-a]pyrimidine-3-carboxamide] | > 90 | 0.01 to 0.05 | 5.00 to 6.00 | > 6.00 | – | – | –
Nc1ncnc2c1c(-c1ccc(Oc3ccccc3)cc1)nn2C1CCN(CCN2CCC(CC3CCN(c4ccc(NC5CCC(=O)NC5=O)cc4)CC3)C2)CC1 (centres unmarked) [Compound 564, 3-((4-(4-((1-(2-(4-(4-amino-3-(4-phenoxyphenyl)-1H-pyrazolo[3,4-d]pyrimidin-1-yl)piperidin-1-yl)ethyl)pyrrolidin-3-yl)methyl)piperidin-1-yl)phenyl)amino)piperidine-2,6-dione] | – | – | > 6.00 | > 6.00 | 0.01 to 0.05 | > 90 | –
Nc1ncnc2c1c(-c1ccc(Oc3ccccc3)cc1)nn2C1CCN(CC2CCN(CCCC(=O)N3CCC(c4ccc5c(c4)CN(C4CCC(=O)NC4=O)C5=O)CC3)CC2)CC1 (centres unmarked) [Compound 422, 3-(5-(1-(4-(4-((4-(4-amino-3-(4-phenoxyphenyl)-1H-pyrazolo(3,4-d)pyrimidin-1-yl)piperidin-1-yl)methyl)piperidin-1-yl)butanoyl)piperidin-4-yl)-1-oxoisoindolin-2-yl)piperidine-2,6-dione] | – | – | > 6.00 | > 6.00 | < 0.01 | > 90 | –
Nc1ncnc2c1c(-c1ccc(Oc3ccccc3)cc1)nn2C1CCN(C2CCN(C(=O)N3CCC(CCC4CCN(c5ccc6c(c5)CN(C5CCC(=O)NC5=O)C6=O)CC4)CC3)CC2)CC1 (centres unmarked) [Compound 256, 3-(5-(4-(2-(1-(4-(4-amino-3-(4-phenoxyphenyl)-1H-pyrazolo[3,4-d]pyrimidin-1-yl)-[1,4′-bipiperidine]-1′-carbonyl)piperidin-4-yl)ethyl)piperidin-1-yl)-1-oxoisoindolin-2-yl)piperidine-2,6-dione] | > 90 | < 0.01 | > 6.00 | 5.00 to 6.00 | – | – | –
NC(=O)c1c(-c2ccc(Oc3ccccc3)cc2)nn2c1NCC[C@H]2C1CCN(C(=O)N2CCN(CC3CCN(c4ccc5c(c4)CN(C4CCC(=O)NC4=O)C5=O)CC3)CC2)CC1 (stereo partly drawn) [Compound 290, (7S)-7-(1-(4-((1-(2-(2,6-dioxopiperidin-3-yl)-1-oxoisoindolin 5-yl)piperidin-4-yl)methyl)piperazine-1-carbonyl)piperidin-4-yl)-2-(4-phenoxyphenyl)-4,5,6,7-tetrahydropyrazolo[1,5-a]pyrimidine-3-carboxamide] | > 90 | < 0.01 | 5.00 to 6.00 | > 6.00 | – | – | –
Nc1ncnc2c1c(-c1ccc(Oc3ccccc3)cc1)nn2C1CCN(C2CCN(CCN3CCN(c4ccc(N5CCC(=O)NC5=O)cc4)CC3)CC2)CC1 [Compound 570, 1-(4-(4-(2-(4-(4-amino-3-(4-phenoxyphenyl)-1H-pyrazolo[3,4-d]pyrimidin-1-yl)-[1,4′-bipiperidin]-1′-yl)ethyl)piperazin-1-yl)phenyl)dihydropyrimidine-2,4(1H,3H)-dione] | – | – | 5.00 to 6.00 | 5.00 to 6.00 | 0.01 to 0.05 | > 90 | –
NC(=O)c1c(-c2ccc(Oc3ccccc3)cc2)nn2c1NCC[C@H]2C1CCN(CC2CCN(CC3CCN(c4ccc5c(c4)CN(C4CCC(=O)NC4=O)C5=O)CC3)CC2)CC1 (stereo partly drawn) [Compound 330, (7S)-7-(1-((1-((1-(2-(2,6-dioxopiperidin-3-yl)-1-oxoisoindolin-5-yl)piperidin-4-yl)methyl)piperidin-4-yl)methyl)piperidin-4-yl)-2-(4-phenoxyphenyl)-4,5,6,7-tetrahydropyrazolo[1,5-a]pyrimidine-3-carboxamide] | > 75 | 0.01 to 0.05 | 5.00 to 6.00 | 5.00 to 6.00 | – | – | –
NC(=O)c1c(-c2ccc(Oc3ccccc3)cc2)nn2c1NCC[C@H]2C1CCN(C2CCN(C(=O)N3CCN(CC4CCN(c5ccc6c(c5)CN(C5CCC(=O)NC5=O)C6=O)CC4)CC3)CC2)CC1 (stereo partly drawn) [Compound 392, (7S)-7-(1′-(4-((1-(2-(2,6-dioxopiperidin-3-yl)-1-oxoisoindolin-5-yl)piperidin-4-yl)methyl)piperazine-1-carbonyl)-[1,4′-bipiperidin]-4-yl)-2-(4-phenoxyphenyl)-4,5,6,7-tetrahydropyrazolo[1,5-a]pyrimidine-3-carboxamide] | > 90 | 0.01 to 0.05 | > 6.00 | 5.00 to 6.00 | – | – | –
Nc1ncnc2c1c(-c1ccc(Oc3ccccc3)cc1)nn2[C@@H]1CCCN(C2CCN(C(=O)N3CCC(CCCC4CCN(c5ccc6c(c5)C(=O)N(C5CCC(=O)NC5=O)C6=O)CC4)CC3)CC2)C1 (stereo partly drawn) [Compound 195, 5-(4-(3-(1-((R)-3-(4-amino-3-(4-phenoxyphenyl)-1H-pyrazolo[3,4-d]pyrimidin-1-yl)-[1,4′-bipiperidine]-1′-carbonyl)piperidin-4-yl)propyl)piperidin-1-yl)-2-(2,6-dioxopiperidin-3-yl)isoindoline-1,3-dione] | > 75 | > 0.05 | < 5.00 | 5.00 to 6.00 | – | – | –
Nc1ncnc2c1c(-c1ccc(Oc3ccccc3)cc1)nn2C1CCN(CCN2CCC(CN3CCN(c4ccc(N5CCC(=O)NC5=O)cc4)CC3)CC2)CC1 [Compound 554, 1-(4-(4-((1-(2-(4-(4-amino-3-(4-phenoxyphenyl)-1H-pyrazolo[3,4-d]pyrimidin-1-yl)piperidin-1-yl)ethyl)piperidin-4-yl)methyl)piperazin-1-yl)phenyl)dihydropyrimidine-2,4(1H,3H)-dione] | – | – | > 6.00 | > 6.00 | < 0.01 | > 90 | –
NC(=O)c1c(-c2ccc(Oc3ccccc3)cc2)nn2c1NCCC2C1CCN(C(=O)N2CCN(CCN3CCN(c4ccc5c(c4)C(=O)N(C4CCC(=O)NC4=O)C5=O)CC3)CC2)CC1 (centres unmarked) [Compound 281, 7-(1-(4-(2-(4-(2-(2,6-dioxopiperidin-3-yl)-1,3-dioxoisoindolin-5-yl)piperazin-1-yl)ethyl)piperazine-1-carbonyl)piperidin-4-yl)-2-(4-phenoxyphenyl)-4,5,6,7-tetrahydropyrazolo[1,5-a]pyrimidine-3-carboxamide] | > 90 | 0.01 to 0.05 | 5.00 to 6.00 | 5.00 to 6.00 | – | – | –
Nc1ncnc2c1c(-c1ccc(Oc3ccccc3)cc1)nn2C1CCN(CCN2CC(CN3CCN(c4ccc5c(c4)C(=O)N(C4CCC(=O)NC4=O)C5=O)CC3)C2)CC1 (centres unmarked) [Compound 461, 5-(4-((1-(2-(4-(4-amino-3-(4-phenoxyphenyl)-1H-pyrazolo[3,4-d]pyrimidin-1-yl)piperidin-1-yl)ethyl)azetidin-3-yl)methyl)piperazin-1-yl)-2-(2,6-dioxopiperidin-3-yl)isoindoline-1,3-dione] | – | – | > 6.00 | > 6.00 | < 0.01 | > 90 | –
NC(=O)c1c(-c2ccc(Oc3ccccc3)cc2)nn2c1NCC[C@H]2C1CCN(C(=O)N2CCC(CN3CCN(c4ccc5c(c4)C(=O)N(C4CCC(=O)NC4=O)C5=O)CC3)CC2)CC1 (stereo partly drawn) [Compound 291, (7S)-7-(1-(4-((4-(2-(2,6-dioxopiperidin-3-yl)-1,3-dioxoisoindolin-5-yl)piperazin-1-yl)methyl)piperidine-1-carbonyl)piperidin-4-yl)-2-(4-phenoxyphenyl)-4,5,6,7-tetrahydropyrazolo[1,5-a]pyrimidine-3-carboxamide] | > 90 | 0.01 to 0.05 | > 6.00 | > 6.00 | – | – | –
Nc1ncnc2c1c(-c1ccc(Oc3ccccc3)cc1)nn2C1CCN(CC2CCN(CCCN3CCN(c4ccc5c(c4)C(=O)N(C4CCC(=O)NC4=O)C5=O)CC3)CC2)CC1 (centres unmarked) [Compound 207] | > 75 | > 0.05 | < 5.00 | < 5.00 | – | – | –
Nc1ncnc2c1c(-c1ccc(Oc3ccccc3)cc1)nn2C1CCN(CC2CN(CC3CN(c4ccc5c(c4)C(=O)N(C4CCC(=O)NC4=O)C5=O)C3)C2)CC1 (centres unmarked) [Compound 441, 5-(3-((3-((4-(4-amino-3-(4-phenoxyphenyl)-1H-pyrazolo(3,4-d)pyrimidin-1-yl)piperidin-1-yl)methyl)azetidin-1-yl)methyl)azetidin-1-yl)-2-(2,6-dioxopiperidin-3-yl)isoindoline-1,3-dione] | – | – | < 5.00 | < 5.00 | – | < 50 | dose-dependent degradation
Nc1ncnc2c1c(-c1ccc(Oc3ccccc3)cc1)nn2[C@@H]1CCCN(CC2CCN(C(=O)NC3CCC(=O)NC3=O)CC2)C1 (stereo partly drawn) [Compound 518, 4-(((R)-3-(4-amino-3-(4-phenoxyphenyl)-1H-pyrazolo[3,4-d]pyrimidin-1-yl)piperidin-1-yl)methyl)-N-(2,6-dioxopiperidin-3-yl)piperidine-1-carboxamide] | – | – | 5.00 to 6.00 | 5.00 to 6.00 | > 0.05 | > 75 | –
NC(=O)c1c(-c2ccc(Oc3ccccc3)cc2)nn2c1NCCC2C1CCN(C(=O)N2CCC(CN3CCC(c4ccc5c(c4)CN(C4CCC(=O)NC4=O)C5=O)CC3)CC2)CC1 (centres unmarked) [Compound 280, 7-(1-(4-((4-(2-(2,6-dioxopiperidin-3-yl)-1-oxoisoindolin-5-yl)piperidin-1-yl)methyl)piperidine-1-carbonyl)piperidin-4-yl)-2-(4-phenoxyphenyl)-4,5,6,7-tetrahydropyrazolo[1,5-a]pyrimidine-3-carboxamide] | > 90 | < 0.01 | 5.00 to 6.00 | 5.00 to 6.00 | – | – | –
